# Test results: patent US20150105252A1, “SUBSTITUTED PYRAZOLES AS HERBICIDES” (E I DU PONT DE NEMOURS AND COMPANY, priority 2013, published 2015)
# Legend:
# wheat = experiment: Test C preemergence; format: in vivo, Triticum aestivum
# Procedure, shortened: (§1)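 Scores of 0 (no effect) to 100 (complete control) were assigned by eye after 13–15 days, comparing treated pots with controls. Soil-applied (preemergence) treatments went onto seeds in loam and sand; foliar (postemergence) treatments onto 1- to 4-leaf plants in peat medium.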
# soybean = experiment: Test C preemergence; format: in vivo, Glycine max
# Procedure, shortened: as §1
# chickweed = experiment: Test C postemergence; format: in vivo, Stellaria media
# Procedure, shortened: as §1
# crabgrass, large [1] = experiment: Test A postemergence; format: in vivo, Digitaria sanguinalis
# Procedure, shortened: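 Greenhouse test in loam soil/sand blend; compounds formulated in non-phytotoxic solvent with surfactant, applied as preemergence directed soil spray or postemergence to plants 2–10 cm tall at one- to two-leaf stage. Injury rated visually versus untreated controls after approximately 10 days on a 0 (no effect) to 100 (complete control) scale.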
# morningglory = experiment: Test C postemergence; format: in vivo, Ipomoea coccinea
# Procedure, shortened: as §1
# blackgrass = experiment: Test C postemergence; format: in vivo, Alopecurus myosuroides
# Procedure, shortened: as §1
# barnyardgrass = experiment: Test C preemergence; format: in vivo, Echinochloa crus-galli
# Procedure, shortened: as §1
# velvetleaf [2] = experiment: Test C postemergence; format: in vivo, Abutilon theophrasti
# Procedure, shortened: as §1
# oilseed rape = experiment: Test C preemergence; format: in vivo, Brassica napus
# Procedure, shortened: as §1
# lambsquarters = experiment: Test C preemergence; format: in vivo, Chenopodium album
# Procedure, shortened: as §1
# crabgrass, large [3] = experiment: Test C postemergence; format: in vivo, Digitaria sanguinalis
# Procedure, shortened: as §1
# johnsongrass [4] = experiment: Test C postemergence; format: in vivo, Sorghum halepense
# Procedure, shortened: as §1
# galium = experiment: Test C preemergence; format: in vivo, Galium aparine
# Procedure, shortened: as §1
# velvetleaf [5] = experiment: Test C preemergence; format: in vivo, Abutilon theophrasti
# Procedure, shortened: as §1
# johnsongrass [6] = experiment: Test C preemergence; format: in vivo, Sorghum halepense
# Procedure, shortened: as §1
# [7] = preemergence, 31 g ai/ha, visual rating, scale 0 to 100 (0 no effect, 100 complete control), 13 to 15 days
# [8] = preemergence, 62 g ai/ha, 13 to 15 days, scale 0 to 100, 0 = no effect, 100 = complete control
# [9] = preemergence, 125 g ai/ha, scale 0 to 100, 0 is no effect, 100 is complete control
# [10] = Postemergence, 31 g ai/ha, visually evaluated after 13 to 15 days
# [11] = postemergence, 62 g ai/ha, scale 0 to 100
# [12] = postemergence, 250 g ai/ha, scale 0 to 100 (0 no effect, 100 complete control)
# [13] = postemergence, 125 g ai/ha, scale 0 to 100, 0 no effect, 100 complete control
smiles,measurement,setting,value
CCc1cc(C(=O)NC(C)C)nn1Cc1ccnc(C(F)(F)F)c1 [Compound 103],"Plant response rating (scale of 0 to 100), Wheat","wheat; Preemergence, 250 g ai/ha",98
same,Wheat plant response rating,wheat; [7],10
same,"Plant response rating, Wheat",wheat; [8],90
same,Wheat plant response rating,wheat; [9],95
same,"Plant response rating (scale of 0 to 100), Soybean","soybean; Preemergence, 250 g ai/ha",100
same,Soybean plant response rating,soybean; [7],90
same,"Plant response rating, Soybean",soybean; [8],100
same,Soybean plant response rating,soybean; [9],100
same,"Plant response rating (scale of 0 to 100 where 0 is no effect and 100 is complete control), Chickweed",chickweed; [10],50
same,Chickweed plant response rating,chickweed; [11],60
same,"Plant response rating, Chickweed",chickweed; [12],85
same,"Plant response rating, Chickweed",chickweed; [13],75
same,"Crabgrass, Large plant response rating","crabgrass, large [1]; Postemergence, 500 g ai/ha, visual rating after approx. 10 days, 0 to 100 scale (0 no effect, 100 complete control)",100
same,"Crabgrass, Large plant response rating","crabgrass, large [1]; postemergence, 125 g ai/ha, about 10 days, visual rating on 0 to 100 scale (0 no effect, 100 complete control)",90
same,"Plant response rating (scale of 0 to 100 where 0 is no effect and 100 is complete control), Morningglory",morningglory; [10],75
same,Morningglory plant response rating,morningglory; [11],75
same,"Plant response rating, Morningglory",morningglory; [12],100
same,"Plant response rating, Morningglory",morningglory; [13],85
same,"Plant response rating (scale of 0 to 100 where 0 is no effect and 100 is complete control), Blackgrass",blackgrass; [10],10
same,Blackgrass plant response rating,blackgrass; [11],15
same,"Plant response rating, Blackgrass",blackgrass; [12],60
same,"Plant response rating, Blackgrass",blackgrass; [13],40
same,"Plant response rating (scale of 0 to 100), Barnyardgrass","barnyardgrass; Preemergence, 250 g ai/ha",100
same,Barnyardgrass plant response rating,"barnyardgrass; preemergence, 31 g ai/ha, scale 0 to 100 (0 no effect, 100 complete control), 13 to 15 days",100
same,"Plant response rating, Barnyardgrass",barnyardgrass; [8],100
same,Barnyardgrass plant response rating,barnyardgrass; [9],100
same,"Plant response rating (scale of 0 to 100 where 0 is no effect and 100 is complete control), Velvetleaf",velvetleaf [2]; [10],25
same,Velvetleaf plant response rating,velvetleaf [2]; [11],40
same,"Plant response rating, Velvetleaf",velvetleaf [2]; [12],55
same,"Plant response rating, Velvetleaf",velvetleaf [2]; [13],45
same,"Plant response rating (scale of 0 to 100), Oilseed Rape","oilseed rape; Preemergence, 250 g ai/ha",100
same,Oilseed Rape plant response rating,oilseed rape; [7],100
same,"Plant response rating, Oilseed Rape",oilseed rape; [8],100
same,Oilseed Rape plant response rating,oilseed rape; [9],100
same,"Plant response rating (scale of 0 to 100), Lambsquarters","lambsquarters; Preemergence, 250 g ai/ha",100
same,Lambsquarters plant response rating,lambsquarters; [7],100
same,"Plant response rating, Lambsquarters",lambsquarters; [8],100
same,Lambsquarters plant response rating,lambsquarters; [9],100
same,"Plant response rating (scale of 0 to 100 where 0 is no effect and 100 is complete control), Crabgrass, Large","crabgrass, large [3]; [10]",10
same,"Crabgrass, Large plant response rating","crabgrass, large [3]; [11]",15
same,"Plant response rating, Crabgrass, Large","crabgrass, large [3]; [12]",85
same,"Plant response rating, Crabgrass, Large","crabgrass, large [3]; [13]",35
same,"Plant response rating (scale of 0 to 100 where 0 is no effect and 100 is complete control), Johnsongrass",johnsongrass [4]; [10],5
same,Johnsongrass plant response rating,johnsongrass [4]; [11],10
same,"Plant response rating, Johnsongrass",johnsongrass [4]; [12],95
same,"Plant response rating, Johnsongrass",johnsongrass [4]; [13],20
same,"Plant response rating (scale of 0 to 100), Galium","galium; Preemergence, 250 g ai/ha",100
same,Galium plant response rating,galium; [7],100
same,"Plant response rating, Galium",galium; [8],100
same,Galium plant response rating,galium; [9],100
same,"Plant response rating (scale of 0 to 100), Velvetleaf","velvetleaf [5]; Preemergence, 250 g ai/ha",100
same,Velvetleaf plant response rating,velvetleaf [5]; [7],100
same,"Plant response rating, Velvetleaf",velvetleaf [5]; [8],100
same,Velvetleaf plant response rating,velvetleaf [5]; [9],100
same,"Plant response rating (scale of 0 to 100), Johnsongrass","johnsongrass [6]; Preemergence, 250 g ai/ha",100
same,Johnsongrass plant response rating,johnsongrass [6]; [7],85
same,"Plant response rating, Johnsongrass",johnsongrass [6]; [8],100
same,Johnsongrass plant response rating,johnsongrass [6]; [9],100
